# Measurements taken from patent US12331051B2 (priority 2021, dated 2025).
# How the values were obtained:
# [1] = biological target: T1, Alpha 2C adrenergic receptor (Homo sapiens, UniProt P18825); test: Functional assay in HEK-293 cells (cAMP); type: cell-based
# T1 construct: expressed in transfected cells; host or cells: HEK-293
# T1 sequence (P18825 1-462): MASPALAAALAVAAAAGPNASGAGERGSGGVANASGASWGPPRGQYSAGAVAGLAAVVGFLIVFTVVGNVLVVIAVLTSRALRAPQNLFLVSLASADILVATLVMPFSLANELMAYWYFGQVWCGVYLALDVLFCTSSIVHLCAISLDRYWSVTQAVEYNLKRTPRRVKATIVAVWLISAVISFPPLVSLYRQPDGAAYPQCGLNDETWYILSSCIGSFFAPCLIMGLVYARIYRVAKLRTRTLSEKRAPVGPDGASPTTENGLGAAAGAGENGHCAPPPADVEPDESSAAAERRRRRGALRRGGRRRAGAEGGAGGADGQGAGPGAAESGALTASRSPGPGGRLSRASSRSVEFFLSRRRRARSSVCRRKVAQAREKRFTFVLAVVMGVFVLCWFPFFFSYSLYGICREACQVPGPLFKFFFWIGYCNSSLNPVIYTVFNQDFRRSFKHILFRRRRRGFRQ
# Description: (§1) Neuro-receptor binding and functional effects of the “E559 polymorph” was examined by analyzing binding affinity [Ki (nM)], functional agonist activity [EC50 (nM)], and functional antagonist activity [IC50 (nM)] against a panel of key receptors in neurophysiological disorders. Binding and functional assays were performed at “E559 polymorph” concentrations of 0.0003, 0.003, 0.01, 0.03, 0.1, 0.3, 1, and 10 μM. In binding assays, cell membrane homogenates, expressing each receptor target, were incubated with the corresponding radio-ligand in absence or presence of several concentration of the “E559 polymorph” compound. The measurement of binding affinity of the “E559 polymorph” is represented in TABLE XIII by Ki (nM) which was calculated as percent inhibition of the binding of a radioactively labeled reference ligand at each receptor. In functional assays the HEK-293 cells expressing each receptor target were suspended in buffer and distribute in microplates and incubated for 30 minutes at room temperature or 37° C. in the presence of buffer alone (basal control), the reference agonist or antagonist, or the “E559 polymorph. Following incubation, the cells were lysed and the appropriate fluorescent probe (Ca2+ flux, cAMP, or IP1) were added for 60 minutes to measure the fluorescence transfer at the appropriate wavelength using a microplate reader. The cellular agonist effect (EC50) was calculated as a percent of control response to a known reference agonist and the cellular antagonist effect (IC50) was calculated as a percent inhibition of control reference agonist response for each receptor.
# [2] = biological target: T2, D2S dopamine receptor (Homo sapiens, UniProt P14416); test: Functional assay in HEK-293 cells (cAMP); type: cell-based
# T2 construct: expressed in transfected cells; host or cells: HEK-293
# Description: as §1
# [3] = Pharmacokinetic study, single IP injection, plasma and brain by LC-MS/MS; type: in vivo, CD-1 mice; settings: IP 0.75, 2.25 or 6.75 mg/kg, male and female mice
# Description: A pharmacokinetic (PK) study of the “E559 polymorph” was conducted following a single intraperitoneal (IP) injection in CD-1 mice. PK analysis of the “E559 polymorph” was performed in plasma samples and in brain tissue taken at different time points post injection. Three groups of male mice and three groups of female mice (n=24 per group) were administered “E559” at different doses (0.75, 2.25, or 6.75 mg/kg) by IP injection at time zero. In each dose group, three mice/sex were sacrificed to collect plasma and brain samples at pre-dose, and 0.17, 0.5, 1, 2, 4, 8, and 24 hours post-dose. Levels of the “E559 polymorph” in plasma and brain tissue were assessed by LC-MS/MS method. Briefly, to extract the plasma samples, 200 μL of acetonitrile containing 10 ng/mL LSD-d3 was added to 50 μL of plasma. The mixture was vortexed vigorously, centrifuged (13,000 rpm) for 2 min at 4° C., and then 50 μL of supernatant was combined with 200 μL methanol/water (1:1, v/v) for LC-MS/MS analysis. Brain tissues were weighed and homogenized for ˜1 min in cold acetonitrile at a ratio of 1:1.5 (w/v) brain tissue to extraction solvent. The brain samples were then centrifuged at 13,000 rpm for 2 min at 4° C. and the supernatant was collected for LC-MS/MS analysis. In LC-MS/MS method, isocratic elution was performed on an ACE Excel 5 SuperC18™ column at 25° C., with a run time of 6.5 min. The mobile phase consisted of methanol-water (8:2, v/v) plus 0.1% NH4OH at a flow rate of 0.8 mL/min. The injection volume was 10 μL/sample. […]
# The “E559 polymorph” was quantified by selected reaction monitoring of the following mass transitions (2-Br-LSD m/z 403.3→302, LSD-d3 internal standard m/z 327.2→226.1). The quantification of the “E559 polymorph” concentration in samples was achieved by using appropriate calibration standards. […] The pharmacokinetic parameters were determined by the non-compartmental analysis using the validated Phoenix®WinNonlin® version 8.2 software (Certara Inc).
# [4] = test system: mice; test: Tolerance after repeated dosing, HTR to DOI challenge; type: in vivo, mouse; settings: IP once daily 7 days: DOI 10 mg/kg/day, E559 polymorph 3 mg/kg/day; DOI 1 mg/kg challenge 24 hours later
# Description: To determine if repeated dosing of the “E559 polymorph” can induce tolerance in vivo, HTR experiment described in Examples 2 and 5 was repeated where mice received IP injections of vehicle, DOI (10 mg/kg/day), or the “E559 polymorph” (3 mg/kg/day; once daily for 7 consecutive days) and were then challenged with DOI (1 mg/kg) 24 hours later. Data shown in FIG. 22 are group means±standard deviation for the entire 60 minutes test session. Asterisks indicate statistical significances compared to the Vehicle control (Vehicle was saline).
# [5] = DVS hygroscopicity; type: physicochemical; settings: for DVS (hold at 75% RH) mass increase: crude material, 75% relative humidity, ~5 hr run time
# T2 sequence (P14416 1-414 isoform P14416-2): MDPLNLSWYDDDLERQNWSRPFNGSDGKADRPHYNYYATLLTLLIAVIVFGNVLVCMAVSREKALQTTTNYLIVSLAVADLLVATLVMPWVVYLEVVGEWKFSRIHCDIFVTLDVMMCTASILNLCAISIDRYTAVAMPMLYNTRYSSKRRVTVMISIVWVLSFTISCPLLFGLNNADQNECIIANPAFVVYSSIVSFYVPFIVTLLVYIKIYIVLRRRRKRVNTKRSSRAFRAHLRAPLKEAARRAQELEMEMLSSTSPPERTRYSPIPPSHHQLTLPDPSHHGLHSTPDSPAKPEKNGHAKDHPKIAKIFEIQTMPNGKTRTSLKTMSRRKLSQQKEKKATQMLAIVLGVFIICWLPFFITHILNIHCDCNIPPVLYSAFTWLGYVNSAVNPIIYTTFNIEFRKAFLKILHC
smiles,measurement,setting,value
"CCN(CC)C(=O)[C@@H]1C=C2c3cccc4[nH]c(Br)c(c34)C[C@H]2N(C)C1 [E559, (5R, 8R)-2-Bromo-9,10-didehydro-N,N-diethyl-6-methylergoline-8-carboxamide hemi-D-tartrate]",EC50,[1],0.73 µM
same,IC50,[1],> 10 µM
same,EC50,[2],> 10 µM
same,IC50,[2],> 10 µM
same,crossing of the blood-brain barrier (brain PK),[3],can readily cross the blood-brain barrier
same,plasma levels,[3],increases in time-dependent and dose-dependent manners
same,time to appearance in plasma post dose,[3],10 min
same,"tolerance (tachyphylaxis) after repeated dosing, HTR count on DOI challenge",[4],no tolerance was observed
same,DVS (0-90-0 2 cycles) max water absorbed,"[5]; 90% RH exposure, ~24 hr run time, listed as D-Tartrate",absorbed max 7% water
same,DVS (hold at 75% RH) mass increase,[5],about 3.4%
same,DVS (hold at 75% RH) mass increase,[5]; listed as D-Tartrate,3.4% mass increase
